Source: US20060046968A1, “Prodrug substituted benzoxazoles as estrogenic agents” (priority 2004, published 2006)

Key:
Format in all cases: in vivo
[1] = test system: Sexually immature 129 SvE mice; assay: Mouse uterotrophic test procedure (Procedure 2); conditions: compound 20 mg/kg s.c., days 22-25
[2] = test system: Sexually immature Sprague-Dawley rats; assay: Rat uterotrophic test procedure (Procedure 1); conditions: compound 2 mg/rat + 17α-ethinyl, 17β-estradiol 0.06 μg/rat s.c. (antagonist mode)
[3] = test system: ovariectomized Sprague-Dawley rats; assay: Bone mineral density in the ovariectomized rat (pQCT, proximal tibia); conditions: compound 10 mg/kg s.c.; 5 weeks
Male HLA-B27 rats [4] = assay: HLA-B27 rat test for inflammatory bowel disease: histological scoring of colon; conditions: Study C
Description: Representative metabolites of compounds of the invention were evaluated in the HLA rat standard pharmacological test procedure, which emulates inflammatory bowel disease in humans. The following briefly describes the procedure used and results obtained. […] Louis) and water. Stool quality was observed daily and graded according to the following scale: Diarrhea=3; soft stool=2; normal stool=1. At the end of the study, serum was collected and stored at −70° C. A section of colon was prepared for histological analysis and an additional segment was analyzed for myeloperoxidase activity. In Study A, rats (22-26 weeks old) were dosed subcutaneously once per day for seven days with one of the regimens listed below. […] Histological analysis. Colonic tissue was immersed in 10% neutral buffered formalin. Each specimen of colon was separated into four samples for evaluation. The formalin-fixed tissues were processed in a Tissue-Tek® vaccum infiltration processor (Miles, Inc; West Haven, Conn.) for paraffin embedding. The samples were sectioned at 5 μm and then stained with hematoxylin and eosin (H&E) for blinded histological evaluations using a scale modified after Boughton-Smith. After the scores were completed, the samples were unblinded, and data were tabulated and analyzed by ANOVA linear modeling with multiple mean comparisons. Sections of colonic tissue were evaluated for several disease indicators and given relative scores.

Male HLA-B27 rats [5] = assay: HLA-B27 rat model of arthritis: joint histology; conditions: Study 1; oral 46 days; 10 mg/kg days 1-18, then 20 mg/kg
Description: At the end of the study, the rats are euthanized with CO2, hindlimbs removed at necropsy and fixed in 10% buffered formalin, and the tarsal joints decalcified and embedded in paraffin. Histologic sections are stained with Hematoxylin and Eosin or […] Green stain. Slides are coded so that the examiner is blinded to the treatment groups. Synovial tissue from tarsal joints is evaluated based on synovial hyperplasia, inflammatory cell infiltration, and pannus formation [Poole and Coombs, International Archives of Allergy & Applied Immunology 54: 97-113 (1977)], as outlined below. [table] […] [table] Representative metabolites of compounds of the invention were evaluated in the HLA-B27 rat standard pharmacological test procedure, which emulates arthritis in humans. The following briefly describes the procedure used and results obtained. Male HLA-B27 rats were obtained from Taconic and provided unrestricted access to a food (PMI® LabDiet 5001) and water. Joint scores and histology were evaluated as described above for the Lewis rat model of adjuvant-induced arthritis. Study 1: […]

Male HLA-B27 rats [6] = assay: HLA rat test for inflammatory bowel disease: stool character (3 = diarrhea; 2 = soft stool; 1 = normal stool); conditions: Study C
Male HLA-B27 rats [7] = assay: HLA-B27 rat model of arthritis: joint scores; conditions: Study 1, oral 20 mg/kg once per day (10 mg/kg earlier)
[8] = oral 7 weeks, 10 mg/kg days 1-18, then 20 mg/kg

Oc1cc(Br)c2oc(-c3ccc(O)c(F)c3)nc2c1 [Example 21, 7-BROMO-2-(3-FLUORO-4-HYDROXYPHENYL)-1,3-BENZOXAZOL-5-OL]
mean uterine weight ± SEM [1]: 12.1 ± 1.7 mg | mean uterine weight ± SEM [2]: 93.9 ± 5.9 mg | Total Bone Mineral Density (mean ± SEM) [3]: 501.40 ± 11.97 mg/mL | Trabecular Bone Mineral Density (mean ± SEM) [3]: 312.34 ± 19.73 mg/mL | Scores on all disease parameters versus vehicle (Male HLA-B27 rats [4]; oral): although not statistically significant, were lower than corresponding scores from vehicle-treated rats | Fibrosis (0-2), mean ± SD (Male HLA-B27 rats [4]; [8]): 0.56 ± 0.32 | Inflammation (0-3), mean ± SD (Male HLA-B27 rats [4]; [8]): 2.06 ± 0.43 | Lesion depth (0-2), mean ± SD (Male HLA-B27 rats [4]; [8]): 0.75 ± 0.50 | Total score, mean ± SD (Male HLA-B27 rats [4]; [8]): 4.19 ± 1.74 | Ulceration (0-2), mean ± SD (Male HLA-B27 rats [4]; [8]): 0.81 ± 0.47 | Mankin score (mean ± SD) (Male HLA-B27 rats [5]): 4.6 ± 0.9 | Synovitis score (mean ± SD) (Male HLA-B27 rats [5]): 6.1 ± 0.75 | Stool Character (group's average score) (Male HLA-B27 rats [6]; oral 10 mg/kg once per day, Day 1): 2.75 | Stool Character (group's average score) (Male HLA-B27 rats [6]; oral 10 mg/kg once per day, Day 3): 2.75 | Stool Character (group's average score) (Male HLA-B27 rats [6]; oral 10 mg/kg once per day, Day 4): 2.75 | Stool Character (group's average score) (Male HLA-B27 rats [6]; oral 10 mg/kg once per day, Day 5): 2.75 | Stool Character (group's average score) (Male HLA-B27 rats [6]; oral 10 mg/kg once per day, Day 6): 2.5 | Stool Character (group's average score) (Male HLA-B27 rats [6]; oral 10 mg/kg once per day, Day 7): 2.5 | Stool Character (group's average score) (Male HLA-B27 rats [6]; oral 10 mg/kg once per day, Day 8): 2.75 | Stool Character (group's average score) (Male HLA-B27 rats [6]; oral 10 mg/kg once per day, Day 9): 2.5 | Stool Character (group's average score) (Male HLA-B27 rats [6]; oral 10 mg/kg once per day, Day 10): 2.75 | Stool Character (group's average score) (Male HLA-B27 rats [6]; oral 10 mg/kg once per day, Day 11): 2.5 | Stool Character (group's average score) (Male HLA-B27 rats [6]; oral 10 mg/kg once per day, Day 12): 2.5 | Stool Character (group's average score) (Male HLA-B27 rats [6]; oral 10 mg/kg once per day, Day 13): 2.5 | Stool Character (group's average score) (Male HLA-B27 rats [6]; oral 10 mg/kg once per day, Day 14): 2.5 | Stool Character (group's average score) (Male HLA-B27 rats [6]; oral 10 mg/kg once per day, Day 15): 2.5 | Stool Character (group's average score) (Male HLA-B27 rats [6]; oral 10 mg/kg once per day, Day 16): 2.5 | Stool Character (group's average score) (Male HLA-B27 rats [6]; oral 10 mg/kg once per day, Day 17): 2.5 | Stool Character (group's average score) (Male HLA-B27 rats [6]; oral 10 mg/kg once per day, Day 18): 2.5 | Stool Character (group's average score) (Male HLA-B27 rats [6]; oral 20 mg/kg once per day (10 mg/kg days 1-18), Day 19): 2.75 | Stool Character (group's average score) (Male HLA-B27 rats [6]; oral 20 mg/kg once per day (10 mg/kg days 1-18), Day 20): 2.5 | Stool Character (group's average score) (Male HLA-B27 rats [6]; oral 20 mg/kg once per day (10 mg/kg days 1-18), Day 21): 2.75 | Stool Character (group's average score) (Male HLA-B27 rats [6]; oral 20 mg/kg once per day (10 mg/kg days 1-18), Day 22): 2.5 | Stool Character (group's average score) (Male HLA-B27 rats [6]; oral 20 mg/kg once per day (10 mg/kg days 1-18), Day 23): 2.25 | Stool Character (group's average score) (Male HLA-B27 rats [6]; oral 20 mg/kg once per day (10 mg/kg days 1-18), Day 24): 1.75 | Stool Character (group's average score) (Male HLA-B27 rats [6]; oral 20 mg/kg once per day (10 mg/kg earlier), Day 25): 2 | Stool Character (group's average score) (Male HLA-B27 rats [6]; oral 20 mg/kg once per day (10 mg/kg earlier), Day 26): 2 | Stool Character (group's average score) (Male HLA-B27 rats [6]; oral 20 mg/kg once per day (10 mg/kg earlier), Day 27): 2 | Stool Character (group's average score) (Male HLA-B27 rats [6]; oral 20 mg/kg once per day (10 mg/kg earlier), Day 28): 2 | Stool Character (group's average score) (Male HLA-B27 rats [6]; oral 20 mg/kg once per day (10 mg/kg earlier), Day 29): 2 | Stool Character (group's average score) (Male HLA-B27 rats [6]; oral 20 mg/kg once per day (10 mg/kg earlier), Day 30): 2.25 | Stool Character (group's average score) (Male HLA-B27 rats [6]; oral 20 mg/kg once per day (10 mg/kg earlier), Day 31): 2.25 | Stool Character (group's average score) (Male HLA-B27 rats [6]; oral 20 mg/kg once per day (10 mg/kg earlier), Day 32): 2 | Stool Character (group's average score) (Male HLA-B27 rats [6]; oral 20 mg/kg once per day (10 mg/kg earlier), Day 33): 1.5 | Stool Character (group's average score) (Male HLA-B27 rats [6]; oral 20 mg/kg once per day (10 mg/kg earlier), Day 34): 1.75 | Stool Character (group's average score) (Male HLA-B27 rats [6]; oral 20 mg/kg once per day (10 mg/kg earlier), Day 35): 1.5 | Stool Character (group's average score) (Male HLA-B27 rats [6]; oral 20 mg/kg once per day (10 mg/kg earlier), Day 36): 1.75 | Stool Character (group's average score) (Male HLA-B27 rats [6]; oral 20 mg/kg once per day (10 mg/kg earlier), Day 37): 1.5 | Stool Character (group's average score) (Male HLA-B27 rats [6]; oral 20 mg/kg once per day (10 mg/kg earlier), Day 38): 1.5 | Stool Character (group's average score) (Male HLA-B27 rats [6]; oral 20 mg/kg once per day (10 mg/kg earlier), Day 39): 2 | Stool Character (group's average score) (Male HLA-B27 rats [6]; oral 20 mg/kg once per day (10 mg/kg earlier), Day 40): 1.75 | Stool Character (group's average score) (Male HLA-B27 rats [6]; oral 20 mg/kg once per day (10 mg/kg earlier), Day 41): 2 | Stool Character (group's average score) (Male HLA-B27 rats [6]; oral 20 mg/kg once per day (10 mg/kg earlier), Day 42): 2 | Stool Character (group's average score) (Male HLA-B27 rats [6]; oral 20 mg/kg once per day (10 mg/kg earlier), Day 43): 2 | Stool Character (group's average score) (Male HLA-B27 rats [6]; oral 20 mg/kg once per day (10 mg/kg earlier), Day 44): 2 | Stool Character (group's average score) (Male HLA-B27 rats [6]; oral 20 mg/kg once per day (10 mg/kg earlier), Day 45): 2 | Stool Character (group's average score) (Male HLA-B27 rats [6]; oral 20 mg/kg once per day (10 mg/kg earlier), Day 46): 2 | Joint inflammation score (Male HLA-B27 rats [7]; Day 29): 0.75 | Joint inflammation score (Male HLA-B27 rats [7]; Day 30): 1.75 | Joint inflammation score (Male HLA-B27 rats [7]; Day 31): 1.25 | Joint inflammation score (Male HLA-B27 rats [7]; Day 32): 0.75 | Joint inflammation score (Male HLA-B27 rats [7]; Day 33): 1 | Joint inflammation score (Male HLA-B27 rats [7]; Day 34): 1.25 | Joint inflammation score (Male HLA-B27 rats [7]; Day 35): 2.25 | Joint inflammation score (Male HLA-B27 rats [7]; Day 36): 1 | Joint inflammation score (Male HLA-B27 rats [7]; Day 37): 4 | Joint inflammation score (Male HLA-B27 rats [7]; Day 38): 1.5 | Joint inflammation score (Male HLA-B27 rats [7]; Day 39): 1.5 | Joint inflammation score (Male HLA-B27 rats [7]; Day 40): 2.25 | Joint inflammation score (Male HLA-B27 rats [7]; Day 41): 2.25 | Joint inflammation score (Male HLA-B27 rats [7]; Day 42): 1.5 | Joint inflammation score (Male HLA-B27 rats [7]; Day 43): 1.25 | Joint inflammation score (Male HLA-B27 rats [7]; Day 44): 1 | Joint inflammation score (Male HLA-B27 rats [7]; Day 45): 2.5 | Joint inflammation score (Male HLA-B27 rats [7]; Day 46): 2
